Organism: Rattus norvegicus
Test: Open TG-GATES - Regimen: Single
Assay type: toxicity, organism-based, Sprague-Dawley
Design: regimen Single, gender Male, age 6 weeks
Conditions: in vivo, po, route gavage; for gamma-GTP / ALP / ALT / AST / BUN / CRE / DBIL / GLC / K / LDH / Na / PL / RALB / TBIL / TC / TG / TP: tissue Plasma; for APTT / Bas / Eos / Fbg / Hb / Ht / Lym / MCHC / MCV / Mono / PT / Plat / RBC / Ret / WBC: tissue Blood; for KIDNEY_L / KIDNEY_R / KIDNEY_TOTAL: tissue Kidney; for LIVER: tissue Liver
[1] = 1200 mg/kg, 3 h, dose level Middle
[2] = 1200 mg/kg, 6 h, dose level Middle
[3] = 1200 mg/kg, 9 h, dose level Middle
[4] = 1200 mg/kg, 24 h, dose level Middle
[5] = 2000 mg/kg, 3 h, dose level High
[6] = 2000 mg/kg, 6 h, dose level High
[7] = 2000 mg/kg, 9 h, dose level High
[8] = 2000 mg/kg, 24 h, dose level High

Structure (SMILES): O=C1NC(=O)C(c2ccccc2)(c2ccccc2)N1 [PHENYTOIN]
- gamma-GTP (600 mg/kg, 24 h, dose level Low): 1 IU/L
- TERMINAL_BW [1]: 211.8 g
- APTT [1]: 16.7 s
- Bas [1]: 0.2%
- Eos [1]: 1%
- Fbg [1]: 284.4 mg/dL
- Hb [1]: 13 g/dL
- Ht [1]: 38.7%
- Lym [1]: 75.2%
- MCHC [1]: 33.6%
- MCV [1]: 62.4 fL
- Mono [1]: 3.4%
- PT [1]: 13.8 s
- Plat [1]: 122.5 x10_4/uL
- RBC [1]: 621.4 x10_4/ul
- Ret [1]: 8.4%
- KIDNEY_L [1]: 0.9 g
- KIDNEY_R [1]: 0.9 g
- KIDNEY_TOTAL [1]: 1.8 g
- LIVER [1]: 9.3 g
- ALP [1]: 1502.4 IU/L
- ALT [1]: 35.2 IU/L
- AST [1]: 70.6 IU/L
- BUN [1]: 10.2 mg/dL
- CRE [1]: 0.2 mg/dL
- DBIL [1]: 0.016 mg/dL
- GLC [1]: 191.4 mg/dL
- K [1]: 4 meq/L
- LDH [1]: 98.2 IU/L
- Na [1]: 142.2 meq/L
- PL [1]: 146.8 mg/dL
- RALB [1]: 2.5 g/dL
- TBIL [1]: 0.052 mg/dL
- TC [1]: 75.6 mg/dL
- TG [1]: 74 mg/dL
- TP [1]: 5.4 g/dL
- gamma-GTP [1]: 1.2 IU/L
- TERMINAL_BW [2]: 207.5 g
- APTT [2]: 18 s
- Bas [2]: 0.4%
- Eos [2]: 1%
- Fbg [2]: 279.4 mg/dL
- Hb [2]: 13 g/dL
- Ht [2]: 38.7%
- Lym [2]: 73.2%
- MCHC [2]: 33.7%
- MCV [2]: 61.9 fL
- Mono [2]: 3%
- PT [2]: 14.5 s
- RBC [2]: 625.6 x10_4/ul
- Ret [2]: 8.2%
- WBC [2]: 94.4 x10_2/uL
- KIDNEY_L [2]: 0.9 g
- KIDNEY_R [2]: 0.9 g
- KIDNEY_TOTAL [2]: 1.9 g
- LIVER [2]: 8.7 g
- ALP [2]: 1256.2 IU/L
- ALT [2]: 35.8 IU/L
- AST [2]: 74.8 IU/L
- BUN [2]: 7.8 mg/dL
- CRE [2]: 0.2 mg/dL
- DBIL [2]: 0.016 mg/dL
- GLC [2]: 187 mg/dL
- K [2]: 3.7 meq/L
- LDH [2]: 77 IU/L
- Na [2]: 143.4 meq/L
- PL [2]: 141.4 mg/dL
- RALB [2]: 2.5 g/dL
- TBIL [2]: 0.058 mg/dL
- TC [2]: 76.8 mg/dL
- TG [2]: 30.6 mg/dL
- TP [2]: 5.4 g/dL
- gamma-GTP [2]: 1.2 IU/L
- TERMINAL_BW [3]: 206.4 g
- APTT [3]: 15.4 s
- Bas [3]: 0.4%
- Eos [3]: 1%
- Fbg [3]: 297 mg/dL
- Hb [3]: 13.1 g/dL
- Ht [3]: 38.9%
- Lym [3]: 78.6%
- MCHC [3]: 33.6%
- MCV [3]: 62.8 fL
- Mono [3]: 2%
- PT [3]: 14.1 s
- Plat [3]: 112.1 x10_4/uL
- RBC [3]: 619.2 x10_4/ul
- Ret [3]: 7.6%
- WBC [3]: 69.7 x10_2/uL
- KIDNEY_L [3]: 0.9 g
- KIDNEY_R [3]: 0.9 g
- KIDNEY_TOTAL [3]: 1.8 g
- LIVER [3]: 8 g
- ALP [3]: 1378 IU/L
- ALT [3]: 27.2 IU/L
- AST [3]: 71 IU/L
- BUN [3]: 7.4 mg/dL
- CRE [3]: 0.2 mg/dL
- DBIL [3]: 0.016 mg/dL
- GLC [3]: 194 mg/dL
- K [3]: 4.1 meq/L
- LDH [3]: 70.8 IU/L
- Na [3]: 142.2 meq/L
- PL [3]: 148.8 mg/dL
- RALB [3]: 2.6 g/dL
- TBIL [3]: 0.058 mg/dL
- TC [3]: 80 mg/dL
- TG [3]: 29.8 mg/dL
- TP [3]: 5.6 g/dL
- gamma-GTP [3]: 1 IU/L
- TERMINAL_BW [4]: 211.5 g
- APTT [4]: 16.7 s
- Bas [4]: 0.2%
- Eos [4]: 1.2%
- Fbg [4]: 278.6 mg/dL
- Hb [4]: 13.6 g/dL
- Ht [4]: 40%
- Lym [4]: 78.6%
- MCHC [4]: 33.9%
- MCV [4]: 61.9 fL
- Mono [4]: 2.4%
- PT [4]: 14.3 s
- Plat [4]: 118.4 x10_4/uL
- RBC [4]: 646.4 x10_4/ul
- Ret [4]: 7.1%
- WBC [4]: 94.4 x10_2/uL
- KIDNEY_L [4]: 1 g
- KIDNEY_R [4]: 1 g
- KIDNEY_TOTAL [4]: 1.9 g
- LIVER [4]: 8.6 g
- ALP [4]: 1604.8 IU/L
- ALT [4]: 29 IU/L
- AST [4]: 66.2 IU/L
- BUN [4]: 10 mg/dL
- CRE [4]: 0.2 mg/dL
- DBIL [4]: 0.02 mg/dL
- GLC [4]: 175.4 mg/dL
- K [4]: 4.2 meq/L
- LDH [4]: 102.4 IU/L
- Na [4]: 142.4 meq/L
- PL [4]: 126.6 mg/dL
- RALB [4]: 2.5 g/dL
- TBIL [4]: 0.042 mg/dL
- TC [4]: 66.8 mg/dL
- TG [4]: 52.4 mg/dL
- TP [4]: 5.4 g/dL
- gamma-GTP [4]: 1 IU/L
- TERMINAL_BW [5]: 211 g
- APTT [5]: 19.4 s
- Bas [5]: 0.2%
- Eos [5]: 1%
- Fbg [5]: 266.2 mg/dL
- Hb [5]: 13.1 g/dL
- Ht [5]: 38.8%
- Lym [5]: 77.6%
- MCHC [5]: 33.6%
- MCV [5]: 61.9 fL
- Mono [5]: 3.4%
- PT [5]: 14.1 s
- Plat [5]: 118.3 x10_4/uL
- RBC [5]: 626.4 x10_4/ul
- Ret [5]: 8.3%
- WBC [5]: 94.8 x10_2/uL
- KIDNEY_L [5]: 0.9 g
- KIDNEY_R [5]: 0.9 g
- KIDNEY_TOTAL [5]: 1.8 g
- LIVER [5]: 8.7 g
- ALP [5]: 1674 IU/L
- ALT [5]: 37.8 IU/L
- AST [5]: 76 IU/L
- BUN [5]: 10.2 mg/dL
- CRE [5]: 0.2 mg/dL
- DBIL [5]: 0.012 mg/dL
- GLC [5]: 185.6 mg/dL
- K [5]: 3.9 meq/L
- LDH [5]: 78.4 IU/L
- Na [5]: 141.4 meq/L
- PL [5]: 137.8 mg/dL
- RALB [5]: 2.5 g/dL
- TBIL [5]: 0.058 mg/dL
- TC [5]: 72 mg/dL
- TG [5]: 41.8 mg/dL
- TP [5]: 5.4 g/dL
- gamma-GTP [5]: 1.2 IU/L
- TERMINAL_BW [6]: 208.6 g
- APTT [6]: 16.1 s
- Bas [6]: 0.2%
- Eos [6]: 0.8%
- Fbg [6]: 289 mg/dL
- Hb [6]: 13.1 g/dL
- Ht [6]: 39.2%
- Lym [6]: 79.2%
- MCHC [6]: 33.4%
- MCV [6]: 61.4 fL
- Mono [6]: 2.4%
- PT [6]: 14.3 s
- RBC [6]: 637.2 x10_4/ul
- Ret [6]: 7.9%
- WBC [6]: 80.1 x10_2/uL
- KIDNEY_L [6]: 1 g
- KIDNEY_R [6]: 0.9 g
- KIDNEY_TOTAL [6]: 1.9 g
- LIVER [6]: 8.5 g
- ALP [6]: 1539.4 IU/L
- ALT [6]: 32 IU/L
- AST [6]: 71.8 IU/L
- BUN [6]: 8.6 mg/dL
- CRE [6]: 0.2 mg/dL
- DBIL [6]: 0.016 mg/dL
- GLC [6]: 186.4 mg/dL
- K [6]: 3.8 meq/L
- LDH [6]: 94.8 IU/L
- Na [6]: 142.2 meq/L
- PL [6]: 139.6 mg/dL
- RALB [6]: 2.5 g/dL
- TBIL [6]: 0.058 mg/dL
- TC [6]: 74.2 mg/dL
- TG [6]: 26 mg/dL
- TP [6]: 5.4 g/dL
- gamma-GTP [6]: 1.4 IU/L
- TERMINAL_BW [7]: 209.1 g
- APTT [7]: 15.5 s
- Bas [7]: 0.4%
- Eos [7]: 1%
- Fbg [7]: 295.6 mg/dL
- Hb [7]: 12.9 g/dL
- Ht [7]: 38.7%
- Lym [7]: 77.6%
- MCHC [7]: 33.4%
- MCV [7]: 61.4 fL
- Mono [7]: 1.6%
- PT [7]: 14 s
- Plat [7]: 122 x10_4/uL
- RBC [7]: 631.4 x10_4/ul
- Ret [7]: 8%
- WBC [7]: 93 x10_2/uL
- KIDNEY_L [7]: 0.9 g
- KIDNEY_R [7]: 0.9 g
- KIDNEY_TOTAL [7]: 1.8 g
- LIVER [7]: 7.6 g
- ALP [7]: 1420.6 IU/L
- ALT [7]: 31.6 IU/L
- AST [7]: 74.6 IU/L
- BUN [7]: 7.8 mg/dL
- CRE [7]: 0.2 mg/dL
- DBIL [7]: 0.016 mg/dL
- GLC [7]: 182.2 mg/dL
- K [7]: 3.9 meq/L
- LDH [7]: 83.2 IU/L
- Na [7]: 141.8 meq/L
- PL [7]: 124 mg/dL
- RALB [7]: 2.6 g/dL
- TBIL [7]: 0.062 mg/dL
- TC [7]: 66 mg/dL
- TG [7]: 23.2 mg/dL
- TP [7]: 5.5 g/dL
- gamma-GTP [7]: 1.8 IU/L
- TERMINAL_BW [8]: 203.9 g
- APTT [8]: 17 s
- Bas [8]: 0%
- Eos [8]: 1%
- Fbg [8]: 279.2 mg/dL
- Hb [8]: 13.8 g/dL
- Ht [8]: 40.9%
- Lym [8]: 75.4%
- MCHC [8]: 33.7%
- MCV [8]: 62.5 fL
- Mono [8]: 2.2%
- PT [8]: 14.3 s
- Plat [8]: 121.4 x10_4/uL
- RBC [8]: 654.4 x10_4/ul
- Ret [8]: 7.7%
- WBC [8]: 89.2 x10_2/uL
- KIDNEY_L [8]: 1 g
- KIDNEY_R [8]: 1 g
- KIDNEY_TOTAL [8]: 1.9 g
- LIVER [8]: 8 g
- ALP [8]: 1411 IU/L
- ALT [8]: 25.2 IU/L
- AST [8]: 66 IU/L
- BUN [8]: 9.8 mg/dL
- CRE [8]: 0.2 mg/dL
- DBIL [8]: 0.014 mg/dL
- GLC [8]: 174.8 mg/dL
- K [8]: 4.3 meq/L
- LDH [8]: 77 IU/L
- Na [8]: 141.8 meq/L
- PL [8]: 124.8 mg/dL
- RALB [8]: 2.6 g/dL
- TBIL [8]: 0.052 mg/dL
- TC [8]: 67.6 mg/dL
- TG [8]: 38 mg/dL
- TP [8]: 5.7 g/dL
- gamma-GTP [8]: 1.2 IU/L
